# Data from publication PMC5218480 (PLoS ONE, 2017).
# Test system: MV-4-11 cells
# Experiment: Gene expression microarray analysis (Affymetrix PrimeView) and GSEA
# Format: cell-based, human
# Parameters: RFU PODN (11730768_x_at) / Fold change /veh PODN (11730768_x_at) / RFU LINC00158 (11744669_a_at) / Fold change /veh LINC00158 (11744669_a_at) / RFU DUSP10 (11751237_a_at) / Fold change /veh DUSP10 (11751237_a_at) / RFU ID3 (11757404_x_at) / Fold change /veh ID3 (11757404_x_at) / RFU PLEKHG5 (11737974_s_at) / Fold change /veh PLEKHG5 (11737974_s_at) / RFU LRRC4B (11730491_at) / Fold change /veh LRRC4B (11730491_at) / RFU GIMAP4 (11747438_a_at) / Fold change /veh GIMAP4 (11747438_a_at) / RFU KRT8 (11758183_x_at) / Fold change /veh KRT8 (11758183_x_at) / RFU CNN1 (11734310_a_at) / Fold change /veh CNN1 (11734310_a_at) / RFU VPS37D (11726825_at) / Fold change /veh VPS37D (11726825_at) / RFU C10orf10 (11716522_x_at) / Fold change /veh C10orf10 (11716522_x_at) / RFU KIR2DL2 /// KIR2DL4 /// KIR2DL5A /// KIR2DL5B /// KIR2DS1 /// KIR2DS2 /// KIR2DS3 /// KIR2DS4 /// KIR3DL3 /// KIR3DL3 /// KIR3DS1 (11738374_at) / Fold change /veh KIR2DL2 /// KIR2DL4 /// KIR2DL5A /// KIR2DL5B /// KIR2DS1 /// KIR2DS2 /// KIR2DS3 /// KIR2DS4 /// KIR3DL3 /// KIR3DL3 /// KIR3DS1 (11738374_at) / RFU C1QL1 (11718748_at) / Fold change /veh C1QL1 (11718748_at) / RFU TMPRSS4 (11747572_a_at) / Fold change /veh TMPRSS4 (11747572_a_at) / RFU HAMP (11756126_x_at) / Fold change /veh HAMP (11756126_x_at) / RFU RNFT2 (11725882_a_at) / Fold change /veh RNFT2 (11725882_a_at) / RFU NR4A2 (11747474_a_at) / Fold change /veh NR4A2 (11747474_a_at) / RFU ABCC12 (11746883_a_at) / Fold change /veh ABCC12 (11746883_a_at) / RFU TMEM136 (11760407_x_at) / Fold change /veh TMEM136 (11760407_x_at) / RFU CLDN22 /// WWC2 (11732394_at) / Fold change /veh CLDN22 /// WWC2 (11732394_at) / RFU HLA-DPB1 (11760878_x_at) / Fold change /veh HLA-DPB1 (11760878_x_at) / RFU SPINT1 (11716480_a_at) / Fold change /veh SPINT1 (11716480_a_at) / RFU GAP43 (11754022_s_at) / Fold change /veh GAP43 (11754022_s_at) / RFU A4GNT (11735810_at) / Fold change /veh A4GNT (11735810_at) / RFU PRB3 (11715151_x_at) / Fold change /veh PRB3 (11715151_x_at) / RFU TUBB4B (11761932_at) / Fold change /veh TUBB4B (11761932_at) / RFU CAPN14 (11732068_a_at) / Fold change /veh CAPN14 (11732068_a_at) / RFU TMCC2 (11721928_a_at) / Fold change /veh TMCC2 (11721928_a_at) / RFU IRGQ (11745062_a_at) / Fold change /veh IRGQ (11745062_a_at) / RFU FAM174B (11720279_a_at) / Fold change /veh FAM174B (11720279_a_at) / RFU TMPRSS4 (11748680_a_at) / Fold change /veh TMPRSS4 (11748680_a_at) / RFU FAM212B (11763350_a_at) / Fold change /veh FAM212B (11763350_a_at) / RFU PLEKHG5 (11743358_a_at) / Fold change /veh PLEKHG5 (11743358_a_at) / RFU ZSCAN30 (11745921_a_at) / Fold change /veh ZSCAN30 (11745921_a_at) / RFU CMKLR1 (11741424_a_at) / Fold change /veh CMKLR1 (11741424_a_at) / RFU LOC101060620 /// MAPK8IP1 (11723275_at) / Fold change /veh LOC101060620 /// MAPK8IP1 (11723275_at) / RFU SPTSSB (11747773_x_at) / Fold change /veh SPTSSB (11747773_x_at) / RFU PRSS12 (11739890_at) / Fold change /veh PRSS12 (11739890_at) / RFU BIN1 (11741810_x_at) / Fold change /veh BIN1 (11741810_x_at) / RFU WNT11 (11732464_a_at) / Fold change /veh WNT11 (11732464_a_at) / RFU C10orf10 (11716521_a_at) / Fold change /veh C10orf10 (11716521_a_at) / RFU C5orf56 (11738089_at) / Fold change /veh C5orf56 (11738089_at) / RFU CYB561 (11721691_x_at) / Fold change /veh CYB561 (11721691_x_at) / RFU ANKRD19P (11752326_a_at) / Fold change /veh ANKRD19P (11752326_a_at) / RFU OR2T12 /// OR2T33 /// OR2T8 (11738714_s_at) / Fold change /veh OR2T12 /// OR2T33 /// OR2T8 (11738714_s_at) / RFU VCAN (11748164_a_at) / Fold change /veh VCAN (11748164_a_at) / RFU JSRP1 (11732532_at) / Fold change /veh JSRP1 (11732532_at) / RFU KRTAP10-11 (11738290_x_at) / Fold change /veh KRTAP10-11 (11738290_x_at) / RFU MYO3A (11730013_a_at) / Fold change /veh MYO3A (11730013_a_at) / RFU EBF3 (11725865_a_at) / Fold change /veh EBF3 (11725865_a_at) / RFU CAMK2N1 (11719241_x_at) / Fold change /veh CAMK2N1 (11719241_x_at) / RFU C5orf56 (11738088_a_at) / Fold change /veh C5orf56 (11738088_a_at) / RFU OLFML3 (11715873_a_at) / Fold change /veh OLFML3 (11715873_a_at) / RFU LOC100653217 /// NTM (11731650_a_at) / Fold change /veh LOC100653217 /// NTM (11731650_a_at) / RFU MAPK11 (11762145_a_at) / Fold change /veh MAPK11 (11762145_a_at) / RFU FIZ1 (11724087_x_at) / Fold change /veh FIZ1 (11724087_x_at) / RFU OASL (11726364_x_at) / Fold change /veh OASL (11726364_x_at) / RFU SOX15 (11748057_x_at) / Fold change /veh SOX15 (11748057_x_at) / RFU CD79A (11719716_a_at) / Fold change /veh CD79A (11719716_a_at) / RFU HIST1H1D (11736915_at) / Fold change /veh HIST1H1D (11736915_at) / RFU CASKIN2 (11723855_a_at) / Fold change /veh CASKIN2 (11723855_a_at) / RFU LOC730098 (11760151_x_at) / Fold change /veh LOC730098 (11760151_x_at) / RFU OR4N2 (11742367_at) / Fold change /veh OR4N2 (11742367_at) / RFU PRRT2 (11749266_a_at) / Fold change /veh PRRT2 (11749266_a_at) / RFU SNX32 (11753110_a_at) / Fold change /veh SNX32 (11753110_a_at) / RFU CDHR5 (11726645_a_at) / Fold change /veh CDHR5 (11726645_a_at) / RFU RCAN1 (11760418_a_at) / Fold change /veh RCAN1 (11760418_a_at) / RFU FAM167A (11723789_a_at) / Fold change /veh FAM167A (11723789_a_at) / RFU FAM26E (11764081_at) / Fold change /veh FAM26E (11764081_at) / RFU ISYNA1 (11749810_s_at) / Fold change /veh ISYNA1 (11749810_s_at) / RFU ACY1 (11761880_at) / Fold change /veh ACY1 (11761880_at) / RFU 11764098_at / Fold change /veh 11764098_at / RFU SAMD14 (11745864_x_at) / Fold change /veh SAMD14 (11745864_x_at) / RFU NPB (11741838_a_at) / Fold change /veh NPB (11741838_a_at) / RFU TMPRSS6 (11731388_a_at) / Fold change /veh TMPRSS6 (11731388_a_at) / RFU KRTAP10-2 (11738614_at) / Fold change /veh KRTAP10-2 (11738614_at) / RFU ARHGAP8 /// PRR5-ARHGAP8 (11727945_x_at) / Fold change /veh ARHGAP8 /// PRR5-ARHGAP8 (11727945_x_at) / RFU KRTAP5-7 /// NADSYN1 (11734609_at) / Fold change /veh KRTAP5-7 /// NADSYN1 (11734609_at) / RFU RASL12 (11751679_a_at) / Fold change /veh RASL12 (11751679_a_at) / RFU CDKN2B (11736163_a_at) / Fold change /veh CDKN2B (11736163_a_at) / RFU PRF1 (11729649_at) / Fold change /veh PRF1 (11729649_at) / RFU, ZNF638 /// ZNF638-IT1 / Fold change vs veh, ZNF638 /// ZNF638-IT1 / RFU, PANK3 / Fold change vs veh, PANK3 / RFU, SH3YL1 / Fold change vs veh, SH3YL1 / RFU, ZEB2 / Fold change vs veh, ZEB2 / RFU, NRIP1 / Fold change vs veh, NRIP1 / RFU, PTTG1IP / Fold change vs veh, PTTG1IP / RFU, CAPN2 / Fold change vs veh, CAPN2 / RFU, MED14 / Fold change vs veh, MED14 / RFU, SNORA58 / Fold change vs veh, SNORA58 / RFU, C1orf63 / Fold change vs veh, C1orf63 / RFU, LRRFIP1 / Fold change vs veh, LRRFIP1 / RFU, NDUFAF7 / Fold change vs veh, NDUFAF7 / RFU, SLC12A2 / Fold change vs veh, SLC12A2 / RFU, IBTK / Fold change vs veh, IBTK / RFU, ESF1 / Fold change vs veh, ESF1 / Fold change vs veh, TMEM50B / RFU, TAOK1 / Fold change vs veh, TAOK1 / RFU, ACBD3 / Fold change vs veh, ACBD3 / RFU, TMA16 / Fold change vs veh, TMA16 / RFU, RWDD3 / Fold change vs veh, RWDD3 / RFU, BCAT1 / Fold change vs veh, BCAT1 / RFU, EDEM3 / Fold change vs veh, EDEM3 / RFU, TMEM33 / Fold change vs veh, TMEM33 / RFU, WDR75 / Fold change vs veh, WDR75 / RFU, AHCTF1 / Fold change vs veh, AHCTF1 / RFU, TFRC / Fold change vs veh, TFRC / RFU, ZDHHC17 / Fold change vs veh, ZDHHC17 / RFU, NOM1 / Fold change vs veh, NOM1 / RFU, ARL8B / Fold change vs veh, ARL8B / RFU, ZBTB11 / Fold change vs veh, ZBTB11 / RFU, TAMM41 / Fold change vs veh, TAMM41 / RFU, KIAA1704 /// LOC100996395 / Fold change vs veh, KIAA1704 /// LOC100996395 / RFU, ING1 / Fold change vs veh, ING1 / RFU, TRMT61B / Fold change vs veh, TRMT61B / RFU, FUBP3 / Fold change vs veh, FUBP3 / RFU, TP53 / Fold change vs veh, TP53 / RFU, TNKS2 / Fold change vs veh, TNKS2 / RFU, ZFP14 / Fold change vs veh, ZFP14 / RFU, ACTR2 / Fold change vs veh, ACTR2 / RFU, PPP3R1 / Fold change vs veh, PPP3R1 / RFU, PIK3R1 / Fold change vs veh, PIK3R1 / RFU, HNRNPA1 / Fold change vs veh, HNRNPA1 / RFU, RNF170 / Fold change vs veh, RNF170 / RFU, ZNF28 / Fold change vs veh, ZNF28 / RFU, RNGTT / Fold change vs veh, RNGTT / RFU, OGT / Fold change vs veh, OGT / RFU, BRD1 / Fold change vs veh, BRD1 / RFU, MARS / Fold change vs veh, MARS / RFU, ZNF655 / Fold change vs veh, ZNF655 / RFU, FAHD1 / Fold change vs veh, FAHD1 / RFU, BDP1 / Fold change vs veh, BDP1 / RFU, LRRCC1 / Fold change vs veh, LRRCC1 / RFU, ARID1A / Fold change vs veh, ARID1A / RFU, ZNF146 / Fold change vs veh, ZNF146 / RFU, ZNF330 / Fold change vs veh, ZNF330 / RFU, GPN3 / Fold change vs veh, GPN3 / RFU, C9orf123 / Fold change vs veh, C9orf123 / RFU, N4BP2L2 / Fold change vs veh, N4BP2L2 / RFU, ARFIP1 / Fold change vs veh, ARFIP1 / RFU, FAM179B / Fold change vs veh, FAM179B / RFU, BCL10 / Fold change vs veh, BCL10 / RFU, UHRF1BP1L / Fold change vs veh, UHRF1BP1L / RFU, BET1 / Fold change vs veh, BET1 / RFU, CNOT2 / Fold change vs veh, CNOT2 / RFU, ZNF268 / Fold change vs veh, ZNF268 / Fold change vs veh, ZNF507 / RFU, DGCR2 / Fold change vs veh, DGCR2 / RFU, WDSUB1 / Fold change vs veh, WDSUB1 / Fold change vs veh, HSP90B1 /// MIR3652 / RFU, ADSS / Fold change vs veh, ADSS / RFU, GK / Fold change vs veh, GK / RFU, ZNF148 / Fold change vs veh, ZNF148 / RFU, TAF9 / Fold change vs veh, TAF9 / RFU, SLC1A5 / Fold change vs veh, SLC1A5 / RFU, SLMO2 / Fold change vs veh, SLMO2 / RFU, ABCC4 / Fold change vs veh, ABCC4 / RFU, LOC101060439 /// RAP1B / Fold change vs veh, LOC101060439 /// RAP1B / RFU, RFX7 / Fold change vs veh, RFX7 / RFU, GTPBP10 / Fold change vs veh, GTPBP10 / RFU, CNEP1R1 / Fold change vs veh, CNEP1R1 / RFU, BIVM-ERCC5 /// ERCC5 / Fold change vs veh, BIVM-ERCC5 /// ERCC5 / RFU, ILF3 / Fold change vs veh, ILF3 / RFU 11762660_at / Fold change /veh 11762660_at / RFU VCAN (11757783_s_at) / Fold change /veh VCAN (11757783_s_at) / RFU DDX43 (11728927_at) / Fold change /veh DDX43 (11728927_at) / RFU KRT8 (11758188_x_at) / Fold change /veh KRT8 (11758188_x_at) / RFU NKD1 (11759106_at) / Fold change /veh NKD1 (11759106_at) / RFU SRD5A1 (11742802_a_at) / Fold change /veh SRD5A1 (11742802_a_at) / RFU TPSAB1 /// TPSB2 (11721975_s_at) / Fold change /veh TPSAB1 /// TPSB2 (11721975_s_at) / RFU GSTM3 (11746129_a_at) / Fold change /veh GSTM3 (11746129_a_at) / RFU IL23R (11737362_x_at) / Fold change /veh IL23R (11737362_x_at) / RFU TMEM51 (11727254_a_at) / Fold change /veh TMEM51 (11727254_a_at) / RFU PIWIL2 (11732686_x_at) / Fold change /veh PIWIL2 (11732686_x_at) / RFU ORM1 (11744905_x_at) / Fold change /veh ORM1 (11744905_x_at) / RFU CCDC152 (11743942_at) / Fold change /veh CCDC152 (11743942_at) / RFU ECM1 (11717891_a_at) / Fold change /veh ECM1 (11717891_a_at) / RFU IL23R (11748794_a_at) / Fold change /veh IL23R (11748794_a_at) / RFU TNFAIP8L3 (11732012_x_at) / Fold change /veh TNFAIP8L3 (11732012_x_at) / RFU MBOAT4 (11741988_at) / Fold change /veh MBOAT4 (11741988_at) / RFU 11764193_at / Fold change /veh 11764193_at / RFU TMEM53 (11763286_at) / Fold change /veh TMEM53 (11763286_at) / RFU MAGEB2 (11727129_at) / Fold change /veh MAGEB2 (11727129_at) / RFU TMEM200A (11744735_a_at) / Fold change /veh TMEM200A (11744735_a_at) / RFU CCDC152 (11751479_a_at) / Fold change /veh CCDC152 (11751479_a_at) / RFU FAM211A (11726209_a_at) / Fold change /veh FAM211A (11726209_a_at) / RFU RGS16 (11746705_a_at) / Fold change /veh RGS16 (11746705_a_at) / RFU VCAN (11755009_s_at) / Fold change /veh VCAN (11755009_s_at) / RFU RHOB (11743442_s_at) / Fold change /veh RHOB (11743442_s_at) / RFU RGS16 (11720943_a_at) / Fold change /veh RGS16 (11720943_a_at) / RFU RGS16 (11720944_at) / Fold change /veh RGS16 (11720944_at) / RFU, VPS4B / Fold change vs veh, VPS4B / RFU, CREB1 / Fold change vs veh, CREB1 / RFU, DNAJC13 / Fold change vs veh, DNAJC13 / RFU, GNAQ / Fold change vs veh, GNAQ / RFU, CDK5R1 / Fold change vs veh, CDK5R1 / RFU, ZRANB3 / Fold change vs veh, ZRANB3 / RFU, CUL4A / Fold change vs veh, CUL4A / RFU, CCNY / Fold change vs veh, CCNY / RFU, UFL1 / Fold change vs veh, UFL1 / RFU, COG3 / Fold change vs veh, COG3 / RFU, DIAPH2 / Fold change vs veh, DIAPH2 / RFU, SKA2 / Fold change vs veh, SKA2 / RFU, AFF3 / Fold change vs veh, AFF3 / RFU, LMF1 / Fold change vs veh, LMF1 / RFU, IPO11 / Fold change vs veh, IPO11 / RFU, DFFB / Fold change vs veh, DFFB / RFU, FOXP1 / Fold change vs veh, FOXP1 / RFU, CARD8 / Fold change vs veh, CARD8 / RFU, STRN3 / Fold change vs veh, STRN3 / RFU, ADK / Fold change vs veh, ADK / RFU, RASSF2 / Fold change vs veh, RASSF2 / RFU, WIPF1 / Fold change vs veh, WIPF1 / RFU, LARP1B / Fold change vs veh, LARP1B / RFU, RASA1 / Fold change vs veh, RASA1 / RFU, RB1 / Fold change vs veh, RB1 / RFU, PPFIA1 / Fold change vs veh, PPFIA1 / RFU, MAT2A / Fold change vs veh, MAT2A / RFU, CCT5 / Fold change vs veh, CCT5 / RFU, WDR92 / Fold change vs veh, WDR92 / RFU, CUX1 / Fold change vs veh, CUX1 / RFU, TTC7A / Fold change vs veh, TTC7A / RFU, TMEM135 / Fold change vs veh, TMEM135 / RFU, DEPTOR / Fold change vs veh, DEPTOR / RFU, CPM / Fold change vs veh, CPM / RFU, DNAJB6 / Fold change vs veh, DNAJB6 / RFU, CACNA2D3 / Fold change vs veh, CACNA2D3 / RFU, DTX4 / Fold change vs veh, DTX4 / RFU, TFCP2 / Fold change vs veh, TFCP2 / RFU, GMCL1 /// GMCL1P1 / Fold change vs veh, GMCL1 /// GMCL1P1 / RFU, AEBP2 / Fold change vs veh, AEBP2 / RFU, SNHG1 /// SNORD22 /// SNORD25 /// SNORD26 /// SNORD27 /// SNORD28 /// SNORD29 /// SNORD31 / Fold change vs veh, SNHG1 /// SNORD22 /// SNORD25 /// SNORD26 /// SNORD27 /// SNORD28 /// SNORD29 /// SNORD31 / Fold change (Aza/veh), C12orf56 (ProbeSet 11735607_a_at) / Fold change (ACY-1035/veh), C12orf56 (ProbeSet 11735607_a_at) / Fold change (Aza/veh), FGFR1OP (ProbeSet 11751329_s_at) / Fold change (ACY-1035/veh), FGFR1OP (ProbeSet 11751329_s_at) / Fold change (Aza/veh), VPS36 (ProbeSet 11739960_a_at) / Fold change (ACY-1035/veh), VPS36 (ProbeSet 11739960_a_at) / RFU SYPL1 (11715823_x_at) / Fold change /veh SYPL1 (11715823_x_at) / RFU IGFBP7 (11715501_s_at) / Fold change /veh IGFBP7 (11715501_s_at) / RFU REEP3 (11722064_at) / Fold change /veh REEP3 (11722064_at) / RFU IGLL1 (11728026_x_at) / Fold change /veh IGLL1 (11728026_x_at): dose or concentration left out as unconfirmed
# Details: MV-4-11 cells, 48 hours
compound,measurement,value
Nc1ccc(-c2cccs2)cc1NC(=O)c1ccc2c(c1)cc(C1CC1)n2CCN1CCOCC1 [ACY-1035],RFU CMKLR1 (11741424_a_at),17.99 RFU
